Results as given in publication PMC6248931 (Science Advances, 2018).

Legend:
HIV [1] = conditions: human, in vivo; cited from earlier work
HIV [2] = conditions: cited from earlier work
HIV-1 pseudovirions = format: cell-based; conditions: 1 μM
HIV HR1-HR2 interaction = format: binding
HIV HR2 peptide = HIV HR2 peptide (Human immunodeficiency virus type 1, UniProt P03377); format: binding
influenza virus = conditions: cited from earlier work

Chain of HIV HR2 peptide (P03377 633-666 limits assumed): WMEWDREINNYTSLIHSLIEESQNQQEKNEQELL

C=C(C)[C@@H]1CC[C@]2(C(=O)O)CC[C@]3(C)[C@H](CC[C@@H]4[C@@]5(C)CC[C@H](OC(=O)CC(C)(C)C(=O)O)C(C)(C)[C@@H]5CC[C@]43C)[C@@H]12 [bevirimat]
efficacy in clinical trials (HIV [1]): promising efficacy

C=C(C)[C@@H]1CC[C@]2(C(=O)O)CC[C@]3(C)[C@H](CC[C@@H]4[C@@]5(C)CC[C@H](O)C(C)(C)[C@@H]5CC[C@]43C)[C@@H]12 [BA, betulinic acid]
inhibitory activity against HIV infection (HIV [2]): show inhibitory activity

C=C(C)[C@@H]1CC[C@]2(C(=O)NCCCCCCCC(=O)N(CCCC3(C)N=N3)CC(=O)O)CC[C@]3(C)C(CCC4[C@@]5(C)CC[C@H](O)C(C)(C)C5CC[C@]43C)C12 (stereo partly shown) [Y20]
inhibitory activity on the infectivity of HIV-1 pseudovirions (HIV-1 pseudovirions): exhibited inhibitory activity | effect on HIV-HR1/HIV-HR2 affinity (in words) (HIV HR1-HR2 interaction): significantly reduced their affinity | binding to HIV-HR2 (in words) (HIV HR2 peptide): binds tightly

CC1(C)CC[C@]2(C(=O)O)CC[C@]3(C)C(=CC[C@@H]4[C@@]5(C)CC[C@H](O)C(C)(C)[C@@H]5CC[C@]43C)[C@@H]2C1 [OA, oleanolic acid]
inhibitory activity against HIV infection (HIV [2]): show inhibitory activity | inhibitory effect on influenza virus entry (influenza virus): significant inhibitory effect
